The test system of data set [1] is Pseudomonas aeruginosa (PA01). It is filed as cell-based. How it is done: (§1) Technical triplicates (n = 3) or more of samples at each concentration were analyzed.
Data set [2] relates to Staphylococcus aureus (NCTC 4135). It is filed as cell-based. On the procedure:
as §1

For data set [3], the system named is Escherichia coli (ATCC 25922). The data set is classed as cell-based. On the procedure: as §1
Data set [4] can be described thus: Critical aggregation concentration (CAC) Nile red fluorescence assay. The following applies: Nile red fluorescence (~10 nM NR in water), lipopeptoids 2.5 × 10^-2 to 1 wt.%, excitation 552 nm, peak around 610 nm, room temperature; inflection in emission intensity. It is filed as physicochemical. How it is done:
Nile red (NR) fluorescence was used to measure critical aggregation concentration (CAC) for the synthesized lipopeptoids. Lipopeptoids were dissolved at 2.5 × 10^−2 to 1 wt.% in a dilute solution of Nile red (0.25 μg/100 mL, i.e. ~10 nM concentration) prepared in water. NR was excited at 552 nm and emission was recorded at room temperature in the range 550–750 nm using a 10.0 × 5.0 mm^2 quartz cell (Jasco spectrofluorimeter FP-6500). The intensity of the peak centered around 610 nm is shown in the data presented in Section results and discussion.
We first examined with a CAC assay whether coupling a hydrophobic tail to AMPMs and inserting the kk and EG2 components is a viable design for generating self-assembling lipopeptoids. The CAC measures the concentration above which hydrophobic pockets (e.g., lipophilic cores of micelles) are formed, and lower CACs indicate higher propensities of self-assembly. In our experiments, the CAC is indicated by an inflection in the increase in emission intensity of a lipophilic fluorophore tracer (Nile Red) that emits more strongly when partitioned into hydrophobic lower dielectric environments (see Figure S6 for an example analysis).

The mark [5] stands for this setting: MH broth microdilution (CLSI M07-A10), ~5 × 10^5 CFU/mL, overnight 37°C, OD 600 nm, MIC = concentration with OD halfway between minimum and maximum, sigmoidal fit ± SD, n = 3 or more, maximum tested 100 μM.

Like-named read-outs stand apart in the source and are kept apart here. Square brackets hold non-standard residues; d marks the D form. Peptide text beside a SMILES is read from it. * marks the point of attachment. N(1-naphthylmethyl)Gly = O=C(O)CNCc1cccc2ccccc12; N(4-MeBn)Gly = Cc1ccc(CNCC(=O)O)cc1; Palmitoyl = CCCCCCCCCCCCCCCC(=O)*; Nspe = C[C@H](NCC(=O)O)c1ccccc1; AEEA = NCCOCCOCC(=O)O; NBuGly = CCCCNCC(=O)O; Nlys = NCCCCNCC(=O)O

For `C[C@@H](c1ccccc1)N(CC(N)=O)C(=O)CN(C(=O)CN(CCCCN)C(=O)CN(C(=O)CN(C(=O)CN(CCCCN)C(=O)CN(C(=O)CN(C(=O)CNCCCCN)[C@@H](C)c1ccccc1)[C@@H](C)c1ccccc1)[C@@H](C)c1ccccc1)[C@@H](C)c1ccccc1)[C@@H](C)c1ccccc1` [(kss)3, reference compound] (H-[Nlys][Nspe][Nspe][Nlys][Nspe][Nspe][Nlys][Nspe][Nspe]-NH2), the “Antimicrobial activity (MIC) P. aeruginosa” value in data set [1] is 15 ± 1 µM. In data set [2], the “Antimicrobial activity (MIC) S. aureus” value is 2 ± 0.2 µM. For the same compound, the “Antimicrobial activity (MIC) E. coli” value in data set [3] stood at 4 ± 0.2 µM.
The like results for `CCCCN(CC(=O)N(CCCCN)CC(N)=O)C(=O)CN(CCCCN)C(=O)CN(Cc1cccc2ccccc12)C(=O)CN(CCCCN)C(=O)CN(Cc1ccc(C)cc1)C(=O)CN(CCCCN)C(=O)CNCc1cccc2ccccc12` [Kykbk, reference compound] (H-[N(1-naphthylmethyl)Gly][Nlys][N(4-MeBn)Gly][Nlys][N(1-naphthylmethyl)Gly][Nlys][NBuGly][Nlys]-NH2) were, in that order, 20 ± 1 µM, 9 ± 0.4 µM and 15 ± 1 µM.
As for `C[C@@H](c1ccccc1)N(CC(N)=O)C(=O)CN(C(=O)CN(CCCCN)C(=O)CN(C(=O)CN(C(=O)CN(CCCCN)C(=O)CN(C(=O)CN(C(=O)CN(CCCCN)C(=O)CN(C(=O)CN(C(=O)CNCCCCN)[C@@H](C)c1ccccc1)[C@@H](C)c1ccccc1)[C@@H](C)c1ccccc1)[C@@H](C)c1ccccc1)[C@@H](C)c1ccccc1)[C@@H](C)c1ccccc1)[C@@H](C)c1ccccc1` [(kss)4, reference compound] (H-[Nlys][Nspe][Nspe][Nlys][Nspe][Nspe][Nlys][Nspe][Nspe][Nlys][Nspe][Nspe]-NH2), the “Antimicrobial activity (MIC) P. aeruginosa” value in data set [1] (PA01, MH broth microdilution (CLSI M07-A10), ~5 × 10^5 CFU/mL, overnight 37°C, OD 600 nm, MIC = concentration with OD halfway between minimum and maximum, sigmoidal fit ± SD, n = 3 or more, maximum tested 100 μM) stood at 16 ± 0.3 µM. Besides, in data set [2] (setting [5]), the “Antimicrobial activity (MIC) S. aureus” value turned out to be 4 ± 0.3 µM. Moreover, in data set [3] (setting [5]), the “Antimicrobial activity (MIC) E. coli” value came to 6 ± 0.4 µM.
In data set [4], `CCCCCCCCCCCCCCCC(=O)NCCOCCOCC(=O)N(CC(=O)N(CCCCN)CC(=O)N(CC(=O)N(CCCCN)CC(=O)N(CC(=O)N(CCCCN)CC(=O)N(CCCC)CC(=O)N(CCCCN)CC(N)=O)Cc1cccc2ccccc12)Cc1ccc(C)cc1)Cc1cccc2ccccc12` [C15-EG2-kykbk] ({Palmitoyl-AEEA}-[N(1-naphthylmethyl)Gly][Nlys][N(4-MeBn)Gly][Nlys][N(1-naphthylmethyl)Gly][Nlys][NBuGly][Nlys]-NH2) came in with a CAC of 410 ± 32 µM.
Take `CCCCN(CC(=O)N(CCCCN)CC(=O)N(CCCCN)CC(=O)N(CCCCN)CC(=O)N(CCCCN)CC(N)=O)C(=O)CN(Cc1cccc2ccccc12)C(=O)CN(Cc1ccc(C)cc1)C(=O)CNCc1cccc2ccccc12` [4k, reference compound] (H-[N(1-naphthylmethyl)Gly][N(4-MeBn)Gly][N(1-naphthylmethyl)Gly][NBuGly][Nlys][Nlys][Nlys][Nlys]-NH2): the “Antimicrobial activity (MIC) P. aeruginosa” value in data set [1] was determined as 19 ± 0.4 µM. Further, the “Antimicrobial activity (MIC) S. aureus” value in data set [2] turned out to be 7 ± 0.1 µM. Also, the “Antimicrobial activity (MIC) E. coli” value in data set [3] was 7 ± 0.3 µM.
On to `CCCCCCCCCCCCCCCC(=O)NCCOCCOCC(=O)N(CC(=O)N(CC(=O)N(CC(=O)N(CCCC)CC(=O)N(CCCCN)CC(=O)N(CCCCN)CC(=O)N(CCCCN)CC(=O)N(CCCCN)CC(=O)N(CCCCN)CC(N)=O)Cc1cccc2ccccc12)Cc1ccc(C)cc1)Cc1cccc2ccccc12` [C15-EG2-5k] ({Palmitoyl-AEEA}-[N(1-naphthylmethyl)Gly][N(4-MeBn)Gly][N(1-naphthylmethyl)Gly][NBuGly][Nlys][Nlys][Nlys][Nlys][Nlys]-NH2), for which the CAC in data set [4] came out at 360 ± 25 µM.
`CCCCCCCCCCCCCCCC(=O)NCCOCCOCC(=O)N(CC(=O)N(CC(=O)N(CC(=O)N(CCCC)CC(=O)N(CCCCN)CC(=O)N(CCCCN)CC(=O)N(CCCCN)CC(=O)N(CCCCN)CC(N)=O)Cc1cccc2ccccc12)Cc1ccc(C)cc1)Cc1cccc2ccccc12` [C15-EG2-4k] ({Palmitoyl-AEEA}-[N(1-naphthylmethyl)Gly][N(4-MeBn)Gly][N(1-naphthylmethyl)Gly][NBuGly][Nlys][Nlys][Nlys][Nlys]-NH2): the CAC in data set [4] came to 320 ± 24 µM.
